Converted amounts (≈) assume the structure as drawn. Read-outs that look alike come from different tables or passages of the source.
Key:
S. aureus ATCC25923 = experiment: MIC determination by microplate dilution, S. aureus human strain; type: cell-based, Staphylococcus aureus; details: Staphylococcus aureus, ATCC25923, Gram-positive, Mueller-Hinton medium, 24 h, 37° C.
How it was run: (§1)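 Two-fold serial broth microdilution in Mueller-Hinton medium, inoculum adjusted to OD 0.01 per well from a 24 h, 37 °C preculture. Compounds were dissolved in DMSO/methanol (50/50) at 5 mg/mL stock. Plates were incubated 24 h at 37 °C under humid atmosphere, then read at 620 nm to derive the MIC; duplicates.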

S. aureus (340) = experiment: MIC determination by microplate dilution, S. aureus animal strain; type: cell-based, Staphylococcus aureus; details: Staphylococcus aureus, Gram-positive, Mueller-Hinton medium, 24 h, 37° C.
How it was run: as §1

S. intermedius (1051997) = experiment: MIC determination by microplate dilution, S. intermedius animal strain; type: cell-based, Staphylococcus intermedius; details: Staphylococcus intermedius, Gram-positive, Mueller-Hinton medium, 24 h, 37° C.
How it was run: as §1

E. faecalis ATCC29212 = experiment: MIC determination by microplate dilution, E. faecalis human strain; type: cell-based, Enterococcus faecalis; details: Enterococcus faecalis, ATCC29212, Gram-positive, Mueller-Hinton medium, 24 h, 37° C.
How it was run: as §1

E. coli ATCC28922 = experiment: MIC determination by microplate dilution, E. coli human strain; type: cell-based, Escherichia coli; details: Escherichia coli, ATCC28922, Gram-negative, Mueller-Hinton medium, 24 h, 37° C.
How it was run: as §1

P. aeruginosa (1051575) [1] = experiment: MIC determination by microplate dilution, P. aeruginosa animal strain; type: cell-based, Pseudomonas aeruginosa; details: Pseudomonas aeruginosa, Gram-negative, Mueller-Hinton medium, 24 h, 37° C.
How it was run: as §1

CHO-K1 cells = experiment: WST1 cytotoxicity test on CHO-K1 cells; type: cell-based, Chinese hamster; details: Cricetulus griseus
How it was run: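 Viability read-out: WST-1 tetrazolium cleavage by mitochondrial dehydrogenases, 20 min at 37 °C, A450. Compounds added at rising concentrations, in duplicate, to CHO-K1 cells for 24 h (37 °C, 5% CO2). IC50, the concentration halving viability, fitted by nonlinear regression.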

P. aeruginosa (1051575) [2] = experiment: Potentiation of the doxycycline activity at 2 μg/mL; type: cell-based, Pseudomonas aeruginosa; details: for MIC - P. aeruginosa (1051575): content of compound of formula (I) to restore the doxycycline activity (at 2 μg/mL): in combination with doxycycline 2 μg/mL, 24 h, 37°
P. aeruginosa (1051575) [3] = experiment: Potentiation of ampicillin activity; type: cell-based, Pseudomonas aeruginosa; details: concentration of compound required with ampicillin 4 μg/mL
Method: (§2) This method requires the use of a 96-well plate: 100 μL of a liquid culture medium are placed in each well and then seeded with the microbial suspension prepared previously. The required volume to be seeded is calculated for an OD of 0.01, which corresponds to about 5×10^6 bacteria in each well. In this plate, the first line corresponds to a negative control (200 μL of sterile culture medium in each well), the second line corresponds to a positive control (100 μL of sterile culture medium+100 μL of the bacterial suspension), and the third line contains 192 μL of culture medium; 8 μL of compound of formula (I) to be tested are placed in each well. […] 92 μL of bacterial suspension are then added to lines 3 to 8. […] After 24 hours of incubation at 37° C., 40 μL of nitro tetrazolium iodide are added to each well to reveal the presence of live bacteria by staining the medium pink.
(§3) The procedure is identical to that indicated in Example 5 above. […]
(§4) The results are given in table V. They indicate the concentration of compound of formula (I) required to be able to restore the activity of the antibiotic under consideration.

P. aeruginosa (1051575) [4] = experiment: Potentiation of erythromycin activity; type: cell-based, Pseudomonas aeruginosa; details: concentration of compound required with erythromycin 2 μg/mL
Method: This method requires the use of a 96-well plate: 100 μL of a liquid culture medium are placed in each well and then seeded with the microbial suspension prepared previously. The required volume to be seeded is calculated for an OD of 0.01, which corresponds to about 5×10^6 bacteria in each well. In this plate, the first line corresponds to a negative control (200 μL of sterile culture medium in each well), the second line corresponds to a positive control (100 μL of sterile culture medium+100 μL of the bacterial suspension), and the third line contains 192 μL of culture medium; 8 μL of compound of formula (I) to be tested are placed in each well. Thereafter, a cascade dilution is performed from this line. […] (1 mg dissolved in 20 mL) are then added to each well of the lines 3 to 8 to obtain a final antibiotic concentration of 2 μg/mL. 92 μL of bacterial suspension are then added to lines 3 to 8. […] After 24 hours of incubation at 37° C., 40 μL of nitro tetrazolium iodide are added to each well to reveal the presence of live bacteria by staining the medium pink.
The procedure is identical to that indicated in Example 5 above. 8 μL of an antibiotic solution under consideration (1 mg dissolved in 20 mL) are added to obtain a final antibiotic concentration of 2 μg/mL instead of 8 μL of a doxycycline solution.
as §4

P. aeruginosa (1051575) [5] = experiment: Potentiation of chloramphenicol activity; type: cell-based, Pseudomonas aeruginosa; details: concentration of compound required with chloramphenicol 4 μg/mL
Method: as §2, §3, §4

C. albicans = experiment: Antifungal activity, cascade microdilution, C. albicans; type: cell-based, Candida albicans; details: Candida albicans, 24 h, read-out: IC50 (μg/mL) C. albicans
E. coli (1956) = experiment: MIC determination by microplate dilution, E. coli animal strain; type: cell-based, Escherichia coli; details: Escherichia coli, Gram-negative, Mueller-Hinton medium, 24 h, 37° C.
How it was run: as §1

P. aeruginosa ATCC27853 = experiment: MIC determination by microplate dilution, P. aeruginosa human strain; type: cell-based, Pseudomonas aeruginosa; details: Pseudomonas aeruginosa, ATCC27853, Gram-negative, Mueller-Hinton medium, 24 h, 37° C.
How it was run: as §1

A. niger = experiment: Antifungal activity, cascade microdilution, A. niger; type: cell-based; details: Aspergillus niger, 24 h, read-out: IC50 (μg/mL) A. niger
Method: 1) Preparation of the Preculture
A negative control (2 mL of sterile Mueller Hinton MH culture medium)
A positive control (1980 μL of culture medium+20 μL of yeast or fungal suspension) from a thawed biological strain (the biological strains are stored at −80° C. in glycerol).
The tubes were incubated at 37° C. for 24 hours at 100 rpm.
The chemical compounds to be tested were prepared at a concentration of 5 mg/mL (in the form of the hydrochloride in water).
2) Preparation of the Microplate for the Determination of the Minimum Inhibitory Concentration (MIC)
The MIC is obtained by using the cascade microdilution method in sterile 96-well plates. 100 μL of MH culture medium are first placed in each well, and 8 μL of the solution (5 mg/mL) of the test molecule are then added to the first wells. The volume is made up with medium to obtain a total volume of 200 μL in these wells. Serial dilution is then performed by taking 100 μL from the first well, and so on successively from well to well. 100 μL of inoculate containing 2-6×10^5 CFU of yeast or fungi are then added to each well. Certain wells are reserved for positive and negative controls.
3) Reading of the Results
After incubation, an optical density (OD) reading was taken in an iEMS plate spectrophotometer at 620 nm. Calculation of the minimum inhibitory concentration (MIC) was performed.

P. aeruginosa (PAO1) = experiment: MIC of doxycycline on P. aeruginosa PAO1; type: cell-based; details: Pseudomonas aeruginosa; doxycycline alone; Gram-negative strain P. aeruginosa (PAO1)
Method: On the Gram-negative strain of P. aeruginosa (PAO1), doxycycline has an MIC of 40 μg/mL.

[6] = CHO-K1, 24 h, read-out: IC50 (μg/mL) CHO
[7] = CHO-K1, read-out: IC50 (μg/mL) CHO

Row | MIC (P. aeruginosa (PAO1)) | Compound | MIC (S. aureus ATCC25923) | MIC (S. aureus (340)) | MIC (S. intermedius (1051997)) | MIC (E. faecalis ATCC29212) | MIC (E. coli ATCC28922) | MIC (P. aeruginosa (1051575) [1]) | IC50 (CHO-K1 cells; [6]) | IC50 (CHO-K1 cells; [7]) | synergism with doxycycline (P. aeruginosa (1051575) [2]; administered with doxycycline at 2 μg/mL) | MIC - P. aeruginosa (1051575): content of compound of formula (I) to restore the doxycycline activity (at 2 μg/mL) (P. aeruginosa (1051575) [2]) | MIC P. aeruginosa (1051575), compound + ampicillin (P. aeruginosa (1051575) [3]) | MIC P. aeruginosa (1051575), compound + erythromycin (P. aeruginosa (1051575) [4]) | MIC P. aeruginosa (1051575), compound + chloramphenicol (P. aeruginosa (1051575) [5]) | IC50 (C. albicans) | MIC (E. coli (1956)) | MIC (P. aeruginosa ATCC27853) | IC50 (A. niger)
1 |  | CC(C)OC(=O)CC[C@@H](C)[C@H]1CCC2C3C(CC[C@@]21C)[C@@]1(C)CC[C@H](NCCCNCCCN)CC1C[C@H]3O (stereo partly drawn) [(11), isopropyl 3β-norspermidinochenodeoxycholate] | 7 µg/mL (≈ 12.8 µM) | 2 µg/mL (≈ 3.65 µM) | 2 µg/mL (≈ 3.65 µM) | 3.5 µg/mL (≈ 6.39 µM) | 14 µg/mL (≈ 25.6 µM) | 14 µg/mL (≈ 25.6 µM) | 140 µg/mL (≈ 256 µM) | 140 µg/mL (≈ 256 µM) | noteworthy synergism | 1 µg/mL | 56 µg/mL | 28 µg/mL | 2 µg/mL | 4 µg/mL (≈ 7.3 µM) |  |  | 
2 |  | CC(C)OC(=O)CC[C@@H](C)[C@H]1CCC2C3CCC4C[C@@H](NCCN(CCN)CCN)CC[C@]4(C)C3C[C@H](O)[C@@]21C (stereo partly drawn) [(29), isopropyl 3β-(tris(2-aminoethyl)amine)deoxycholate] | 28 µg/mL (≈ 49.7 µM) | 14 µg/mL (≈ 24.9 µM) | 14 µg/mL (≈ 24.9 µM) | 28 µg/mL (≈ 49.7 µM) | 14 µg/mL (≈ 24.9 µM) | 56 µg/mL (≈ 99.5 µM) |  |  |  | 4 µg/mL | 56 µg/mL | 56 µg/mL | 7 µg/mL |  | 28 µg/mL (≈ 49.7 µM) | 56 µg/mL (≈ 99.5 µM) | 
3 |  | CC(C)OC(=O)CC[C@@H](C)[C@H]1CCC2C3C(C[C@H](O)[C@@]21C)[C@@]1(C)CC[C@H](NCCCN(C)CCCN)CC1C[C@H]3O (stereo partly drawn) [(36), isopropyl 3β-(bis(3-aminopropyl)methylamine)cholate] | 29 µg/mL (≈ 50.2 µM) | 29 µg/mL (≈ 50.2 µM) | 14 µg/mL (≈ 24.2 µM) | 58 µg/mL (≈ 100 µM) | 58 µg/mL (≈ 100 µM) | 58 µg/mL (≈ 100 µM) |  |  |  | 4 µg/mL | 58 µg/mL | 58 µg/mL | 8 µg/mL |  | 58 µg/mL (≈ 100 µM) | 58 µg/mL (≈ 100 µM) | 
4 |  | COC(=O)CC[C@@H](C)[C@H]1CCC2C3C(CC[C@@]21C)[C@@]1(C)CC[C@H](NCCCN(CCCN)CCCN)CC1C[C@H]3O (stereo partly drawn) [(38), methyl 3β-(tris(3-aminopropyl)amine)chenodeoxycholate] | 14 µg/mL (≈ 24.3 µM) | 14 µg/mL (≈ 24.3 µM) | 29 µg/mL (≈ 50.3 µM) | 3.5 µg/mL (≈ 6.07 µM) | 28 µg/mL (≈ 48.5 µM) | 14 µg/mL (≈ 24.3 µM) | 17 µg/mL (≈ 29.5 µM) | 17 µg/mL (≈ 29.5 µM) |  | 2 µg/mL |  |  |  | 115 µg/mL (≈ 199 µM) | 14 µg/mL (≈ 24.3 µM) | 28 µg/mL (≈ 48.5 µM) | 4 µg/mL (≈ 6.93 µM)
5 |  | CC(C)OC(=O)CC[C@@H](C)[C@H]1CCC2C3C(CC[C@@]21C)[C@@]1(C)CC[C@H](NCCN(CCN)CCN)CC1C[C@H]3O (stereo partly drawn) [(40), isopropyl 3β-(tris(2-aminoethyl)amine)chenodeoxycholate] | 14 µg/mL (≈ 24.9 µM) | 14 µg/mL (≈ 24.9 µM) | 7 µg/mL (≈ 12.4 µM) | 14 µg/mL (≈ 24.9 µM) | 14 µg/mL (≈ 24.9 µM) |  |  | 140 µg/mL (≈ 249 µM) |  | 4 µg/mL | 28 µg/mL | 56 µg/mL | 4 µg/mL | 7 µg/mL (≈ 12.4 µM) | 28 µg/mL (≈ 49.7 µM) | 56 µg/mL (≈ 99.5 µM) | 
6 |  | CC(C)OC(=O)CC[C@@H](C)[C@H]1CCC2C3C(CC[C@@]21C)[C@@]1(C)CC[C@H](NCCCNCCCNCCCN)CC1C[C@H]3O (stereo partly drawn) [Compound (10), isopropyl 3β-norsperminochenodeoxycholate] | 4 µg/mL (≈ 6.61 µM) | 2 µg/mL (≈ 3.31 µM) | 0.8 µg/mL (≈ 1.32 µM) | 8 µg/mL (≈ 13.2 µM) | 16 µg/mL (≈ 26.4 µM) | 4 µg/mL (≈ 6.61 µM) | 85 µg/mL (≈ 141 µM) | 85 µg/mL (≈ 141 µM) |  | 2 µg/mL |  |  |  | 2 µg/mL (≈ 3.31 µM) | 10 µg/mL (≈ 16.5 µM) |  | 4 µg/mL (≈ 6.61 µM)
7 | 40 µg/mL | C[C@H]1c2cccc(O)c2C(=O)C2=C(O)[C@]3(O)C(=O)C(C(N)=O)=C(O)[C@@H](N(C)C)[C@@H]3[C@@H](O)[C@@H]21 [doxycycline] |  |  |  |  |  |  |  |  |  |  |  |  |  |  |  |  | 
